Molecular target: T1, Na(+)/dicarboxylate cotransporter 3 (Homo sapiens, UniProt Q8WWT9)
T1 sequence (Q8WWT9 whole entry): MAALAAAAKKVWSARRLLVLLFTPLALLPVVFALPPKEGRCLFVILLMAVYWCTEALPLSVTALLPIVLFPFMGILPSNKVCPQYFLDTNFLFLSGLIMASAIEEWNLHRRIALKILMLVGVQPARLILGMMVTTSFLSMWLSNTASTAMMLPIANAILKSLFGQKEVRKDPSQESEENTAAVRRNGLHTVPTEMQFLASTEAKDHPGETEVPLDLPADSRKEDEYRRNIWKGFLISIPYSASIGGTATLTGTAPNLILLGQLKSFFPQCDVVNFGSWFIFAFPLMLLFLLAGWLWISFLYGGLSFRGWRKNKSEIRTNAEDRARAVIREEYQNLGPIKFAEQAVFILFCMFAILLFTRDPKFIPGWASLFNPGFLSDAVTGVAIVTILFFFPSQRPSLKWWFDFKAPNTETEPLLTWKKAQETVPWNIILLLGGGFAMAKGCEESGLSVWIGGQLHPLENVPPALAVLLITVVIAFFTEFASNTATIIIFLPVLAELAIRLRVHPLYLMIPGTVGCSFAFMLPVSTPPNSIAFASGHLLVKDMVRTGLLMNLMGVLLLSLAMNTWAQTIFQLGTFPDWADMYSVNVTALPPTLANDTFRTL
Test: Substrate uptake by the Na(+)/Dicarboxylate Cotransporter 3 (NADC3, SLC13A3) as assessed by the fluorescent FLIPR membrane potential dye in HEK-293 JumpIN-SLC13A3 cells (PubChem AID: 1794820)
Format: functional, cell-based, HEK293

EC50 [µM] | SMILES
54 | O=C(O)CCC(=O)C(=O)O [ALPHA-KETOGLUTARIC ACID]
107 | O=C(O)CCC(=O)O [SUCCINIC ACID]
